{"source": "patent US20030096733A1", "about": "“Novel drug targets for arthritis” (Omnio AB, priority 2001, published 2003)", "molecules": {"B1": {"name": "Human plasminogen: human plasminogen injected intravenously into plasminogen deficient mice to restore the serum plasminogen level (protein)", "chain": "MEHKEVVLLLLLFLKSGQGEPLDDYVNTQGASLFSVTKKQLGAGSIEECAAKCEEDEEFTCRAFQYHSKEQQCVIMAENRKSSIIIRMRDVVLFEKKVYLSECKTGNGKNYRGTMSKTKNGITCQKWSSTSPHRPRFSPATHPSEGLEENYCRNPDNDPQGPWCYTTDPEKRYDYCDILECEEECMHCSGENYDGKISKTMSGLECQAWDSQSPHAHGYIPSKFPNKNLKKNYCRNPDRELRPWCFTTDPNKRWELCDIPRCTTPPPSSGPTYQCLKGTGENYRGNVAVTVSGHTCQHWSAQTPHTHNRTPENFPCKNLDENYCRNPDGKRAPWCHTTNSQVRWEYCKIPSCDSSPVSTEQLAPTAPPELTPVVQDCYHGDGQSYRGTSSTTTTGKKCQSWSSMTPHRHQKTPENYPNAGLTMNYCRNPDADKGPWCFTTDPSVRWEYCNLKKCSGTEASVVAPPPVVLLPDVETPSEEDCMFGNGKGYRGKRATTVTGTPCQDWAAQEPHRHSIFTPETNPRAGLEKNYCRNPDGDVGGPWCYTTNPRKLYDYCDVPQCAAPSFDCGKPQVEPKKCPGRVVGGCVAHPHSWPWQVSLRTRFGMHFCGGTLISPEWVLTAAHCLEKSPRPSSYKVILGAHQEVNLEPHVQEIEVSRLFLEPTRKDIALLKLSSPAVITDKVIPACLPSPNYVVADRTECFITGWGETQGTFGAGLLKEAQLPVIENKVCNRYEFLNGRVQSTELCAGHLAGGTDSCQGDSGGPLVCFEKDKYILQGVTSWGLGCARPNKPGVYVRVSRFVTWIEGVMRNN"}, "B2": {"name": "α2AP: single-chain glycoprotein, physiological inhibitor of plasmin (protein, UniProt P08697 40-491, looked up)", "Alpha-2-antiplasmin": "NQEQVSPLTLLKLGNQEPGGQTALKSPPGVCSRDPTPEQTHRLARAMMAFTADLFSLVAQTSTCPNLILSPLSVALALSHLALGAQNHTLQRLQQVLHAGSGPCLPHLLSRLCQDLGPGAFRLAARMYLQKGFPIKEDFLEQSEQLFGAKPVSLTGKQEDDLANINQWVKEATEGKIQEFLSGLPEDTVLLLLNAIHFQGFWRNKFDPSLTQRDSFHLDEQFTVPVEMMQARTYPLRWFLLEQPEIQVAHFPFKNNMSFVVLVPTHFEWNVSQVLANLSWDTLHPPLVWERPTKVRLPKLYLKHQMDLVATLSQLGLQELFQAPDLRGISEQSLVVSGVQHQSTLELSEVGVEAAAATSIAMSRMSLSSFSVNRPFLFFIFEDTTGLPLFVGSVRNPNPSAPRELKEQQDSPGNKDFLQSLKGFPRGDKLFGPDLKLVPPMEEDYPQFGSPK"}}, "key": {"plasmin [1]": {"molecular_target": "T1, plasmin (Homo sapiens, UniProt P00747)", "T1 construct": "After the cleavage, plasmin is an active two-chain disulfide linked molecule", "conditions": "chromogenic substrate; cited from earlier work"}, "human uPA": {"molecular_target": "human uPA (Homo sapiens, UniProt P00749)", "conditions": "read-out: Km for human uPA; chromogenic substrate; cited from earlier work"}, "CIA-sensitive mice [2]": {"tested_on": "CIA-sensitive mice", "test": "Aprotinin treatment of CIA-sensitive mice, arthritis induced by monoclonal antibodies C1 and M2139", "assay_type": "in vivo", "conditions": "0.5 mL aprotinin w/o emulsion i.p. every 72 hours; monoclonal antibody induction", "excerpt": "(§1) To test potential drug candidates, arthritis is induced in CIA-sensitive mice either by immunization with collagen type II (CIA) or, alternatively, by use of monoclonal antibodies.\nUsing monoclonal antibodies to induce CIA has an advantage in that it allows for better control of the induction.\n(§2) The present example describes treatment of CIA-sensitive mice with aprotinin (Trasylol; Bayer). Trasylol is an inhibitor of plasmin and thereby, according to the invention, a candidate drug for treating arthritis.\n(§3) Since aprotinin has a rather short half life in mice, a sustained release system for Trasylol is used. An exemplary system based on water/oil (w/o) emulsions where aprotinin is incorporated is described in detail by Bjerregaard et al. (Journal of Controlled release 2001; 71:87-98).\nThe mice are injected intraperitoneally with 0.5 mL aprotinin emulsion, containing 30% w/w disperse phase with 87 mg aprotinin per ml aqueous phase (corresponding to a dose of approximately 85,000 KIU (“kallikrein-inactivator units”) aprotinin, using a Hamilton syringe 21 G needle. (It is also possible to carry out controlled administration of aprotinin via an osmotic pump.) The injection is repeated every 72 hours.\nCIA induction using monoclonal antibodies. […] The development of arthritis is evaluated with the clinical grading system described in Example 1. […]"}, "CIA-sensitive mice [3]": {"tested_on": "CIA-sensitive mice", "test": "Aprotinin treatment of CIA-sensitive mice, arthritis induced by rat collagen II", "assay_type": "in vivo", "conditions": "0.5 ml aprotinin w/o emulsion i.p. every 72 hr; collagen II induction", "excerpt": "as §1, §2, §3\nCIA induction using Collagen-II. Collagen-induced arthritis (CIA) is induced in mice with Rat collagen II, which is prepared from the Swarm chondrosarcoma after pepsin digestion, as previously described (Andersson and Holmdahl, Eur J Immunol 1990;20:1061-1066). Collagen II is dissolved at a concentration of 2 mg/ml in 0.1 M acetic acid and stored at 4° C. Arthritis is induced by intrademal injection at the basis of the tail with […] of […] rat collagen II emulsified with an equal volume of complete Freund's adjuvant (CFA, with Mycobacterium butyricum; Difco, Detroit, Mich.). […]"}, "[4]": {"conditions": "cited from earlier work"}, "[5]": {"tested_on": "plasminogen deficient mice", "test": "Restoration of plasminogen in plasminogen deficient mice, arthritis induced by collagen II monoclonal antibody cocktail", "assay_type": "in vivo", "description": "Induction of arthritis using monoclonal antibodies directed against collagen type II. A battery of monoclonal antibodies against collagen type II were produced by standard procedures. Induction of arthritis was performed by intravenous injection of a cocktail of two antibodies denoted C1 and M2139 at day 0. Five days later (day 5), lipopolysacchride was injected intraperitoneally to enhance the immune response. The development of arthritis was evaluated with a previously described clinical grading system.\nClinical grading evaluation of arthritis. The development of arthritis was tracked using a scoring system which defines one inflamed toe or knuckle as 1 point and one inflamed wrist or ankle as […], resulting in a score of 0-15 points for each paw and 0-60 points per mouse. Deformed or swollen without redness is not included in this system.\nInduction of arthritis in plasminogen deficient mice by restoration of plasminogen. 100 μl of human plasminogen, at a concentration of 10 mg/ml, was injected intravenously into the plasminogen deficient mice every 24 hours in order to restore the serum plasminogen level. 12 hours after the first injection of plasminogen, three groups of mice, plg-wildtype, plg-heterozygous, plg-deficient were again injected with plasminogen before arthritis was induced using the Collagen II monoclonal antibody cocktails as described above. The development of arthritis was followed by the clinical scoring system."}, "plasmin [6]": {"molecular_target": "T1, plasmin", "conditions": "cited from earlier work"}}, "note": "Where a name gives a salt, the structure may show the parent alone. Residues, ends and D or L forms follow the SMILES beside them."}
{"molecule": "CC(C)C[C@H](NC(=O)[C@H](N)C(C)C)C(=O)N[C@@H](CCCCN)C(=O)Nc1ccc([N+](=O)[O-])cc1", "note": "[S-2251, H-D-Valyl-L-leucyl-L-lysine-p-nitroaniline dihydrochloride] (HELM PEPTIDE1{[dV].L.K.[O=[N+]([O-])c1ccc(N[*:1])cc1]}$$$$V2.0)", "values": [{"measurement": "Km", "setting": "plasmin [1]", "result": 300, "unit": "µM"}]}
{"molecule": "L-pyroglutamyl-glycyl-L-arginine-p-nitroaniline hydrochloride [S-2444]", "values": [{"measurement": "Km", "setting": "human uPA", "result": 90, "unit": "µM"}]}
{"molecule": "aprotinin", "values": [{"measurement": "incidence of the CIA vs control mice", "setting": "CIA-sensitive mice [2]", "result": "lower"}, {"measurement": "severity of the CIA vs control mice", "setting": "CIA-sensitive mice [2]", "result": "lower"}, {"measurement": "incidence of the CIA vs control mice", "setting": "CIA-sensitive mice [3]", "result": "lower"}, {"measurement": "severity of the CIA vs control mice", "setting": "CIA-sensitive mice [3]", "result": "lower"}, {"measurement": "half life in mice", "setting": "[4]", "result": "rather short"}]}
{"molecule": "B1", "values": [{"measurement": "plasminogen deficient mice that developed joint inflammation", "setting": "[5]; five days after the cocktail injection, human plasminogen injected 12 hours before challenge", "result": "3 out of 4"}, {"measurement": "Arthritic score", "setting": "[5]; plg −/− mice, human plasminogen i.v. every 24 hours, anti-collagen II monoclonal antibody cocktail, clinical score 0-60 points per mouse", "result": "6.7 ± 2.9"}, {"measurement": "Incidence of RA", "setting": "[5]; plg −/− mice, human plasminogen i.v. every 24 hours, anti-collagen II monoclonal antibody cocktail, mice affected/total", "result": "3/4"}]}
{"molecule": "B2", "values": [{"measurement": "second-order rate constant of inhibition of plasmin", "setting": "plasmin [6]", "result": "above 10^7 M^−1s^−1"}]}
